We go through two compounds from patent publication US4318916A, “Antibiotic PS-5 and derivatives having β-lactamase inhibitory activity and production thereof” (Sanraku-Ocean Co., Ltd., priority 1977, dated 1982).

Data set [1] has as its system Alcaligenes faecalis B-326. The data set is described as follows: MIC by broth dilution (Table 13). Format: cell-based. As to conditions: Alcaligenes faecalis, B326, 20 h. The method, then: (§1) The MIC (minimum inhibitory concentration) values of the compound were determined on various pathogenic microorganisms including several resistant strains, utilizing the broth dilution method in BRAIN HEART INFUSION BROTH `Eiken` (EIKEN CHEMICAL CO., LTD.).
(§2) The results were read after incubation at 35° C. for 20 hours. The minimum inhibitory concentration (MIC) values means the lowest concentration unit of the tritylation product of the antibiotic PS-5 was no growth of the corresponding microorganism was observed under the above described conditions. As the control antibiotics,the solutions of ampicillin and cephaloridine were prepared in BRAIN HEART INFUSION BROTH `Eiken` (pH 7.0) at a concentration of 100 μg/ml and treated same as the test compound of the present invention.
Background: Broth dilution looks for growth in wells or tubes with falling amounts of substance.

Another data set deals with Citrobacter freundii E-9. Put plainly: MIC by broth dilution (Table 13). Format: cell-based. The conditions noted are these: E9, 20 h; Citrobacter freundii E-9; read-out: MIC. The method, then:
as §1, §2

In data set [2] the test system is Diplococcus pneumoniae Type III. The data set is described as follows: MIC by broth dilution (Table 13). Format: cell-based. As to conditions: Streptococcus pneumoniae, 20 h; Diplococcus pneumoniae Type III; read-out: MIC. The method, then: as §1, §2
Data set [3] concerns Enterobacter aerogenes E-19. The data set is described as follows: MIC by broth dilution (Table 13). The conditions noted are these: Klebsiella aerogenes, E19, 20 h. The data set is classed as cell-based. On the procedure: as §1, §2
Data set [4] concerns Enterobacter cloacae E-16. Put plainly: MIC by broth dilution (Table 13). The data set is classed as cell-based. The conditions noted are these: E16, 20 h. On the procedure:
as §1, §2

In another data set the test system is Enterobacter sp. E-8. Put plainly: MIC by broth dilution (Table 13). Format: cell-based. The conditions noted are these: SP.E8, 20 h; Enterobacter sp. E-8; read-out: MIC. The method, then: as §1, §2
A further data set deals with Escherichia coli K12. Put plainly: MIC by broth dilution (Table 13). The data set is classed as cell-based. The conditions noted are these: 20 h. The method, then: as §1, §2
The subject of data set [5] is Klebsiella pneumoniae K-2. The data set is described as follows: MIC by broth dilution (Table 13). The data set is classed as cell-based. As to conditions: K2, 20 h; Klebsiella pneumoniae K-2; read-out: MIC. On the procedure: as §1, §2
Another data set has as its system Proteus mirabilis P-6. The data set is described as follows: MIC by broth dilution (Table 13). The data set is classed as cell-based. The conditions noted are these: Proteus mirabilis, P6, 20 h. On the procedure: as §1, §2
Another data set deals with Proteus rettgeri P-7. Put plainly: MIC by broth dilution (Table 13). The data set is classed as cell-based. The conditions noted are these: Providencia rettgeri, P7, 20 h; Proteus rettgeri P-7; read-out: MIC. The method, then: as §1, §2
Data set [6] relates to Proteus vulgaris P-5. The data set is described as follows: MIC by broth dilution (Table 13). The data set is classed as cell-based. The conditions noted are these: P5, 20 h; Proteus vulgaris P-5; read-out: MIC. The method, then:
as §1, §2

Data set [7] deals with Pseudomonas aeruginosa P-1. Put plainly: MIC by broth dilution (Table 13). The data set is classed as cell-based. As to conditions: P1, 20 h; Pseudomonas aeruginosa P-1; read-out: MIC. The method, then: as §1, §2
The subject of a further data set is Sarcina lutea S-19. Put plainly: MIC by broth dilution (Table 13). Format: cell-based. The conditions noted are these: Micrococcus luteus, S19, 20 h; Sarcina lutea S-19; read-out: MIC. The method, then:
as §1, §2

In another data set the test system is Serratia marcescens S-18. The data set is described as follows: MIC by broth dilution (Table 13). The data set is classed as cell-based. As to conditions: S18, 20 h. The method, then: as §1, §2
For data set [8], the system named is Staphylococcus aureus FDA 209p. Put plainly: MIC by broth dilution (Table 13). The conditions noted are these: FDA209P, 20 h; Staphylococcus aureus FDA 209p; read-out: MIC. Format: cell-based. The method, then:
as §1, §2

The subject of data set [9] is Staphylococcus aureus Smith. The data set is described as follows: MIC by broth dilution (Table 13). The data set is classed as cell-based. As to conditions: 20 h; Staphylococcus aureus Smith; read-out: MIC. On the procedure: as §1, §2
The subject of data set [10] is Streptococcus pyogenes NY-5. The data set is described as follows: MIC by broth dilution (Table 13). Format: cell-based. As to conditions: NY5, 20 h; Streptococcus pyogenes NY-5; read-out: MIC. On the procedure:
as §1, §2

The subject of data set [11] is Proteus vulgaris P-5. The data set is described as follows: Potentiation disc assay with cephaloridine (Table 10). Format: cell-based. The conditions noted are these: Proteus vulgaris P-5; for Inhibition zone With CER: 50 μg/ml cephaloridine in agar. The method, then: (A) Ten milliliters of molten nutrient agar containing 50 μg/ml of penicillin G or cephaloridine, 0.8% of Kyokuto Nutrient Broth Powder and 1.0% of Difco Bacto-Agar (pH 7.0) were seeded with the beta-lactam-resistant, beta-lactamase-producing microorganisms indicated in Tables 9 and 10, and poured in a 9-cm Petri dish to provide the bio-assay agar plate. On this assay plate, 8-mm pulp discs containing 25 μl each of antibiotic PS-5 solutions at the indicated concentrations were placed and incubated at 35° C. for 18 hours before reading the inhibition zones. The control assay plate was similarly prepared without penicillin G nor cephaloridine. As reference antibiotics, penicillin G, ampicillin, oxacillin and cefazolin were disc-assayed under the same conditions.

The subject of data set [12] is Staphylococcus aureus Smith. Put plainly: Therapeutic activity of antibiotic PS-5 sodium salt in infected mice. The data set is classed as in vivo. As to conditions: sc; male ddy mice infected i.p. with 5×10^5 cells/mouse Staphylococcus aureus Smith; subcutaneously injected soon after infection; read-out: 50% curative dose. From the text: The therapeutic activity of the antibiotic PS-5 sodium salt was studied by treating mice intraperitoneally infected with 5×10^5 cells/mouse of Staphylococcus aureus Smith. Soon after the infection, an aqueous solution of the antibiotic PS-5 sodium salt was subcutaneously injected.

A further data set relates to male ddy mice. Format: in vivo. As to conditions: 500 mg/kg intraperitoneally. On the procedure:
An aqueous solution of the antibiotic PS-5 sodium salt was intraperitoneally administered to male ddy mice (Shizuoka) at the dose of 500 mg/kg.

A short description of data set [13]: Solubility of antibiotic PS-5. Format: physicochemical. The conditions noted are these: sodium salt preparation of Example 9.
Data set [14] relates to Comamonas terrigena B-996. Put plainly: Disc bio-assay of antimicrobial activity, cephaloridine equivalent units. Format: cell-based. The conditions noted are these: Comamonas-cephaloridine units per mg of the final purified preparation. The method, then: The overnight culture of Comamonas terrigena B-996 on a nutrient agar slant was suspended in nutrient broth so as to give an optical cell density of 0.040 at 610 nm.
The seed suspension was added in a 1% amount to a molten agar medium containing 0.8% Kyokuto Nutrient Broth Powder (Kyokuto Pharmaceutical Industries Co.) and 1.0% Bacto-Agar (Difco Laboratories). Seven milliliters of the seeded molten agar medium were distributed in a Petri dish (9 cm in diameter) and solidified). This is defined as a Comamonas assay plate.
An 8 mm pulp disc was usually soaked with a sample solution to be assayed, left on a clean sheet of filter paper for a sufficient time to remove the excess solution and then transferred onto an assay plate. After incubation at 35° C. for 20 hours, the diameter of the observed inhibition zone was measured and compared with standard solutions of cephaloridine. The antimicrobial activity of the antibiotic PS-5 and related compounds is expressed as cephaloridine equivalent units/ml.
As well known to those skilled in the art, the assay standard curve varies to some extent, depending on the species of the test microorganisms. […]

SMILES strings stand for the structures. In brackets after ≈: the same amount, converted by molar mass. Counter-ions that a name gives are not always drawn.

What is called MIC is the least concentration at which growth counts as inhibited. Take `CC1(C)S[C@@H]2[C@H](NC(=O)[C@H](N)c3ccccc3)C(=O)N2[C@H]1C(=O)O` [Ampicillin, ampicillin]: the MIC in data set [1] is 6.25 µg/mL (≈ 17.9 µM); in the data set on Citrobacter freundii E-9 it was over 100 µg/mL; in [2] it was 0.04 µg/mL (≈ 0.114 µM); in data set [3], over 100 µg/mL; in [4], over 100 µg/mL; in the data set with Enterobacter sp. E-8, over 100 µg/mL. Besides, the MIC against Escherichia coli K12 is 3.13 µg/mL (≈ 8.96 µM); in data set [5], over 100 µg/mL; against Proteus mirabilis P-6, 3.13 µg/mL (≈ 8.96 µM); in the data set with Proteus rettgeri P-7, 50 µg/mL (≈ 143 µM); in the data set on Proteus vulgaris P-5 [6], over 100 µg/mL; in [7], 50 µg/mL (≈ 143 µM). Also, the MIC in the data set on Sarcina lutea S-19 was determined as 0.05 µg/mL (≈ 0.143 µM); against Serratia marcescens S-18 it was 50 µg/mL (≈ 143 µM); in [8] it was 0.2 µg/mL (≈ 0.572 µM); in data set [9], 0.2 µg/mL (≈ 0.572 µM); in [10], 0.02 µg/mL (≈ 0.0572 µM). Moreover, the zone of inhibition at 625 µg/mL in the data set on Proteus vulgaris P-5 [11] (P5, 18 h, reference antibiotic 625 μg/ml, read-out: Inhibition zone Without CER) was determined as 0 mm. Further, in the data set on Proteus vulgaris P-5 [11] (P5, 18 h, reference antibiotic 2,500 μg/ml, read-out: Inhibition zone Without CER), the zone of inhibition at 2500 µg/mL amounted to 0 mm. Besides, the zone of inhibition at 10000 µg/mL in the data set with Proteus vulgaris P-5 [11] (P5, 18 h, reference antibiotic 10,000 μg/ml, read-out: Inhibition zone Without CER) turned out to be 14.7 mm. Moreover, the “Potentiation of the antimicrobial activity of cephaloridine” value with Proteus vulgaris P-5 [11] (disc assay, Table 10) was “could not increase the antimicrobial activity of cephaloridine”. Also, the “Inhibition zone With CER” value in the data set on Proteus vulgaris P-5 [11] (reference antibiotic 625 μg/ml) stood at 0 mm; in the data set with Proteus vulgaris P-5 [11] (reference antibiotic 2,500 μg/ml) it was 0 mm; in the data set with Proteus vulgaris P-5 [11] (reference antibiotic 10,000 μg/ml), 12.9 mm.
As to `CCC1C(=O)N2C(C(=O)O)=C(SCCNC(C)=O)CC12` (centres unmarked) [antibiotic PS-5 sodium salt], the ED50 in [12] came to 2.45 mg/kg. Also, the “Deaths after intraperitoneal administration” value in the data set with male ddy mice was “No dead was recorded”. Further, in data set [13], the Solubility in acetone entry is reported as “substantially insoluble” and the Solubility in water entry is on record as “Soluble”. In addition, in data set [14], the Specific activity is on record as 21,000 CCU/mg.
